How the values were obtained:
NICD1 protein [1] = assay: NICD1 protein expression by western blotting in SH-SY5Y cells; type: cell-based, human; details: 5 μM, treated in combination after overexpression of Pin1, SH-SY5Y, FIG. 1B
Protocol: In Examples according to the present invention, a human neuroblastoma cell line, SH-SY5Y, and a mouse embryonic fibroblast cell line, an MEF cell, were used. All of the cells were cultured in DMEM (Sigma) media containing 10% fetal bovine serum (Gibco, Welgene, Hyclone) and 1% penicillin/streptomycin.
A sample was prepared by isolating a protein from cells, and analyzed by 10% sodium dodecyl sulfate (SDS)-polyacrylamide gel electrophoresis using Tris-glycine running buffer. The gel was removed after the electrophoresis, and a transferring process was performed using a transfer buffer containing 0.025 mol/L Tris base, 0.15 mol/L glycine, and 10% (v/v) methanol at 15 V for 1.5 hours to transfer proteins onto a nitrocellulose membrane along an electrical flow. The protein-binding membrane was immersed in blocking buffer (5% non-fat milk in 20 mM Tris-HCl, pH 7.5, 137 mM NaCl, 0.2% Tween-20), and reacted at room temperature for 1 hour. […]
First, to verify the correlation between the Notch1 signaling activity and Pin1, Pin1 protein was overexpressed with Pin1 cDNA in a human neuroblastoma cell line, SH-SY5Y, and a change in expression of a Notch1 signaling-activation molecule, NICD1 protein, was analyzed by western blotting (WB). […]

SH-SY5Y cells = assay: Apoptosis of SH-SY5Y cells under GD or OGD by trypan blue staining; type: cell-based, human; details: OGD or GD condition for 6 hours or 12 hours, juglone 1.5 μM, PiB 5 μM, DTM 5 μM, FIGS. 5A to 5D
Protocol: By the method as described in Example 4, SH-SY5Y cells were exposed to OGD or GD conditions to induce apoptosis, and Pin1 inhibitors including juglone were treated to verify a neuroprotective effect.
SH-SY5Y cells were treated with Pin1 inhibitors such as 5-hydroxy-1,4-naphthoquinone (juglone), diethyl-1,3,6,8-tetrahydro-1,3,6,8-tetraoxobenzo phenanthroline-2,7-diacetate (PiB), and dipentamethylene thiuram monosulfide (DTM) at a concentration each of 1.5, 5 or 5 μM, and exposed to a GD or OGD condition for 6 hours or 12 hours to induce apoptosis, and then stained with trypan blue (0.4%) to quantify a degree of apoptosis.

Pin1 protein [2] = assay: Pin1 protein expression in primary neuronal cells in ischemic stroke-like environment (immunocytochemistry, western blotting); type: cell-based; details: OGD or GD condition, FIGS. 4A and 4B
Protocol: (§8) Primary neuronal cells were cultured in a glucose and serum-free medium in a 5% or 1% oxygen incubator for 9, 12 and 24 hours to create an ischemic stroke-like environment on a cellular level, thereby inducing the neuronal cell death. Afterward, an expression level of the Pin1 protein was analyzed by immunocytochemistry and western blotting.
(§9) In addition, after the neuronal cells were cultured under the OGD condition for 12 hours, the induction of the neuronal cell death was detected by trypan blue (0.4%) staining, which is shown in FIG. 4C.

NICD1 protein [3] = assay: NICD1 expression in left hemisphere of MCAO mouse, administration before MCAO (western blotting); type: in vivo; details: 3 mg/kg intraperitoneally twice before MCAO, compared to control group, FIGS. 7C and 7D
Protocol: (§1) A sample was prepared by isolating a protein from cells, and analyzed by 10% sodium dodecyl sulfate (SDS)-polyacrylamide gel electrophoresis using Tris-glycine running buffer. The gel was removed after the electrophoresis, and a transferring process was performed using a transfer buffer containing 0.025 mol/L Tris base, 0.15 mol/L glycine, and 10% (v/v) methanol at 15 V for 1.5 hours to transfer proteins onto a nitrocellulose membrane along an electrical flow. The protein-binding membrane was immersed in blocking buffer (5% non-fat milk in 20 mM Tris-HCl, pH 7.5, 137 mM NaCl, 0.2% Tween-20), and reacted at room temperature for 1 hour. […] The next day, the membrane was washed with Tris-buffered saline-T (20 mM Tris-HCL, pH 7.5, 137 mM NaCl, 0.2% Tween-20) three times each for 10 minutes. In addition, the membrane was reacted with secondary antibodies at room temperature for 1 hour, washed again three times, and then scanned using an Odyssey® Infrared Imaging System (LI-COR Biosciences) or ECL-plus system to analyze the expression level of each protein.
(§2) A mouse was anesthetized and an epidermis around the neck was incised. […]
(§3) In addition, the left hemisphere of the stroke-triggered mouse was analyzed by western blotting to compare the expressions of NICD1, Pin1 and FBW7 proteins.

NICD1 protein [4] = assay: NICD1 expression in MCAO mouse brain, administration after stroke (western blotting); type: in vivo; details: 3 mg/kg once by intravenous injection after MCAO, compared to control group, FIGS. 8C and 8D
Protocol: as §1
(§4) A mouse was anesthetized and an epidermis around the neck was incised. The left common carotid artery linked to the left hemisphere was ligated with a surgical suture, and then the external carotid artery was incised to insert a filament thereinto. […]

primary neuronal cells = assay: Neuronal cell death under OGD condition by trypan blue staining; details: OGD condition for 12 hours, FIG. 4C
Protocol: as §8, §9

FBW7 protein [5] = assay: FBW7 expression in MCAO mouse brain, administration after stroke (western blotting); type: in vivo; details: 3 mg/kg once by intravenous injection after MCAO, compared to control group, FIGS. 8C and 8D
Protocol: as §1, §4

NICD1 protein [6] = assay: NICD1 expression in primary neuronal cells under GD or OGD by western blotting; type: cell-based; details: GD or OGD condition, FIGS. 4F and 4G
Protocol: (§5) A sample was prepared by isolating a protein from cells, and analyzed by 10% sodium dodecyl sulfate (SDS)-polyacrylamide gel electrophoresis using Tris-glycine running buffer. The gel was removed after the electrophoresis, and a transferring process was performed using a transfer buffer containing 0.025 mol/L Tris base, 0.15 mol/L glycine, and 10% (v/v) methanol at 15 V for 1.5 hours to transfer proteins onto a nitrocellulose membrane along an electrical flow. The protein-binding membrane was immersed in blocking buffer (5% non-fat milk in 20 mM Tris-HCl, pH 7.5, 137 mM NaCl, 0.2% Tween-20), and reacted at room temperature for 1 hour. Afterward, the membrane was reacted overnight with primary antibodies, such as Pin1 (R&D, Epitomics), NICD1 (Upstate), MYC (Roche), FBW7 (Bioss), or Actin (Sigma), which specifically bound to each protein whose expression level was to be confirmed, at 4° C. The next day, the membrane was washed with Tris-buffered saline-T (20 mM Tris-HCL, pH 7.5, 137 mM NaCl, 0.2% Tween-20) three times each for 10 minutes. […]
(§6) Subsequently, primary neuronal cells were cultured under a GD or OGD condition for 12 hours or 24 hours, and then changes in expressions of caspase-3, which is one of the apoptosis signal proteins, and NICD1 protein were analyzed by western blotting.

NICD1 ubiquitination = NICD1 ubiquitination by co-immunoprecipitation and western blotting in Pin1-overexpressing SH-SY5Y cells; type: cell-based, human; details: 1.5 μM, Pin1-overexpressing SH-SY5Y treated with MG132, FIG. 3A
Text: MYC-tagged NICD1, HA-tagged ubiquitin (Ub), and Pin1 were expressed in SH-SY5Y cell lines, and treated with MG132 to inhibit a proteolytic activity of a 26S proteasome complex. Afterward, HA and FBW7-specific antibodies were used to analyze a degree of NICD1 ubiquitination by co-immunoprecipitation (IP) and western blotting (WB).

[7] = system: middle cerebral artery occlusion (MCAO) animal model; assay: Neuroprotective effect in MCAO animal model, administration after triggering of ischemic stroke; type: in vivo; details: mouse, 3 mg/kg once by intravenous injection after MCAO operation, compared to control group
Text: (§7) A mouse was anesthetized and an epidermis around the neck was incised. The left common carotid artery linked to the left hemisphere was ligated with a surgical suture, and then the external carotid artery was incised to insert a filament thereinto. The filament was pushed into the middle cerebral artery through the internal carotid artery to locally clog the middle cerebral artery, thereby interrupting blood supply to construct an ischemic animal model. After cerebral infarction was induced in the animal model for 1 hour, the filament was removed from the blood vessel (artery), and then the blood was supplied again to the blood vessel, followed by suturing.
An MCAO operation was conducted on a mouse as described in Example 1-4 to trigger ischemic stroke, and then juglone (3 mg/kg) was administered once to the mouse by intravenous injection. Afterward, the resultant mouse was compared with the control group mouse to which the juglone was not administered.

[8] = system: cleaved caspase-3 (CLCas-3) protein; assay: Cleaved caspase-3 expression in primary neuronal cells under GD or OGD by western blotting; type: cell-based; details: GD or OGD condition for 12 hours or 24 hours, FIGS. 4D and 4E
Protocol: as §5, §6

FBW7 protein [9] = assay: FBW7 expression in left hemisphere of MCAO mouse, administration before MCAO (western blotting); type: in vivo; details: 3 mg/kg intraperitoneally twice before MCAO, compared to control group, FIGS. 7C and 7D
Protocol: as §1, §2, §3

Pin1 protein [10] = assay: Pin1 expression in left hemisphere of MCAO mouse, administration before MCAO (western blotting); type: in vivo; details: 3 mg/kg intraperitoneally twice before MCAO, compared to control group, FIGS. 7C and 7D
Protocol: as §1, §2, §3

Pin1 protein [11] = assay: Pin1 expression in MCAO mouse brain, administration after stroke (western blotting); type: in vivo; details: 3 mg/kg once by intravenous injection after MCAO, compared to control group, FIGS. 8C and 8D
Protocol: as §1, §4

[12] = system: middle cerebral artery occlusion (MCAO) animal model; assay: Stroke inhibitory effect in MCAO animal model, administration before MCAO operation; type: in vivo; details: mouse, 3 mg/kg intraperitoneally twice before MCAO operation, compared to control group
Text: as §7
Ischemic stroke was trigged in the mouse by intraperitoneally administering the juglone (3 mg/kg) twice and conducting an MCAO operation, and then the resultant mouse was compared with a control group mouse to which the juglone was not administered.

SMILES: C[C@H](NC(=O)Cc1cc(F)cc(F)c1)C(=O)N[C@H](C(=O)OC(C)(C)C)c1ccccc1 [DAPT, N-[N-(3,5-difluorophenacetyl)-1-alanyl]-S-phenylglycine t-butyl ester]
- expression of NICD1 protein (NICD1 protein [1]): increase in NICD1 was not found

SMILES: S=C(SC(=S)N1CCCCC1)N1CCCCC1 [DTM, dipentamethylene thiuram monosulfide]
- apoptosis (trypan blue) (SH-SY5Y cells): decreased to a greater or less extent

SMILES: CCOC(=O)CN1C(=O)c2ccc3c4c(ccc(c24)C1=O)C(=O)N(CC(=O)OCC)C3=O [PiB, diethyl-1,3,6,8-tetrahydro-1,3,6,8-tetraoxobenzo phenanthroline-2,7-diacetate]
- apoptosis (trypan blue) (SH-SY5Y cells): decreased to a greater or less extent

SMILES: O=C1C=CC(=O)c2c(O)cccc21 [juglone, 5-hydroxy-1,4-naphthoquinone]
- Pin1 expression (Pin1 protein [2]): reduced
- expression of NICD1 protein (NICD1 protein [3]): decreased
- expression of NICD1 protein (NICD1 protein [4]): decreased
- apoptosis (trypan blue) (SH-SY5Y cells): decreased to a greater or less extent
- apoptosis (neuronal cell death, trypan blue) (primary neuronal cells): reduced
- expression of FBW7 protein (FBW7 protein [5]): increased
- expression of NICD1 protein (NICD1 protein [6]): decreased
- NICD1 ubiquitination (NICD1 ubiquitination): increased again
- generation of ischemia ([7]; FIG. 8A): decreased
- neurological deficits ([7]; FIG. 8B): decreased
- expression of cleaved caspase-3 (CLCas-3) protein [8]: decreased
- expression of FBW7 protein (FBW7 protein [9]): increased
- expression of Pin1 protein (Pin1 protein [10]): decreased
- expression of Pin1 protein (Pin1 protein [11]): decreased
- generation of ischemia ([12]; FIG. 7A): decreased
- neurological deficits ([12]; FIG. 7B): decreased

— patent US20160199367A1, “Composition for the prevention or treatment of the symptoms in the stroke comprising the inhibitor of Pin1” (RESEARCH & BUSINESS FOUNDATION SUNGKYUNKWAN UNIVERSITY, priority 2015, published 2016)
